Measurements taken from PubChem BioAssay AID2305 (GlaxoSmithKline (GSK), 2010).

The molecules below were run on P. falciparum 3D7 growth, pLDH absorbance (assay: P. falciparum 3D7 growth inhibition, dose response, strain 3D7 (AID 2305)).
Work on `N#Cc1ccc(C2CCN(CC[C@H](N)Cc3ccc(Cl)s3)CC2)cc1` yielded an IC50 of 1260 nM.
`CCCCOC(=O)C1=C(C)NC2=C(C(=O)CC(c3ccc(OC)c(OC)c3)C2)C1c1ccc(O)cc1` (stereo not given) showed an IC50 of 830 nM.
For `CNC(=O)c1cnc(Nc2ccc(OCC(O)CN(C)C)cc2)nc1Nc1cccc(OC)c1` (stereo not given), the IC50 was 320 nM.
`O=C(O)C1CC(=O)N(c2ccc(Cl)cc2)C1` (stereo not given) gave an IC50 of 220 nM.
Molecule `CCN(CC)CCN(Cc1ccc(-c2ccc(C(F)(F)F)cc2)cc1)C(=O)Cn1c(CCc2cccc(C#N)c2)nc(=O)c2ccccc21` has an IC50 of 770 nM.
With `COc1cc2nccc(Nc3cccc(Oc4ccccc4)c3)c2cc1OC` the IC50 was 640 nM.
`C(=NNc1ccnc2ccccc12)c1ccncc1` gave an IC50 of 740 nM.
For `CC(=O)Nc1nc(C(=O)Nc2ccc(-c3ccc(-c4nc5c(C)cccc5[nH]4)cc3)cc2)cs1`, the IC50 was 180 nM.
`Cn1cncc1C(=O)Nc1cccc(-c2cccc(-c3nc4ccccc4[nH]3)c2)c1` was tested, and the IC50 was 640 nM.
In the case of `Cc1cc(CNC(=O)c2ccc(-c3ccc(-c4nc5ccc(C(F)(F)F)cc5[nH]4)s3)cc2)on1`, the IC50 is reported as 730 nM.
With `Cn1ccnc1CNC(=O)c1ccc(-c2ccc(-c3nc4ccc(C(F)(F)F)cc4[nH]3)s2)cc1` the IC50 was 700 nM.
Molecule `COc1ccc(C(=O)N2CCC3(CC2)C(=O)N(CC(=O)NCC2CCCCC2)CN3c2ccccc2)c(OC)c1` has an IC50 of 120 nM.
`COc1cccc(CCNC(C)Cc2ccc(OCCCCOc3ccccc3)cc2)c1` (stereo not given) gave an IC50 of 740 nM.
`O=C(Nc1cc(C(F)(F)F)cc(C(F)(F)F)c1)Nc1cc(C(F)(F)F)cc(C(F)(F)F)c1` showed an IC50 of 730 nM.
`Oc1c(Br)cc2oc3c(c2c1CNCc1ccccc1)CCCC3` was tested, and the IC50 was 960 nM.
`CCOC(=O)c1ccc(N2CCN(CCCNC(=O)/C(=C/C=C/c3cc4cc(Cl)c(Cl)cc4[nH]3)OC)CC2)cc1` was tested, and the IC50 was 850 nM.
Work on `Nc1cc(C=Cc2ccc([N+](=O)[O-])s2)nc2ccccc12` yielded an IC50 of 760 nM.
Molecule `CC(=O)c1c(CC(=O)O)c2ccccc2n1O` has an IC50 of 740 nM.
`CC(C)CCN=C(N)Nc1ccc(OCCCCCOc2ccc(NC(N)=NCCC(C)C)cc2)cc1` showed an IC50 of 1080 nM.
Work on `Cc1cccc2[nH]c(C3CCN(CC4CCN(C(=O)/C=C/c5ccc(Cl)c(Cl)c5)CC4)CC3)nc12` yielded an IC50 of 480 nM.
Molecule `CN(C)Cc1ccc(-c2cccc(NC(=O)c3cccc(Cl)c3)c2)cc1` has an IC50 of 690 nM.
Molecule `CN1CCN(c2ccc(Cl)cc2NC(=O)C2COc3ccccc3O2)CC1` (stereo not given) has an IC50 of 810 nM.
Work on `COCCN(CCOC)c1ncc(-c2ccsc2)c(-c2nc(C)c(C)s2)n1` yielded an IC50 of 840 nM.
`CNC(=O)c1cc(S(=O)(=O)N2CCN(c3ccccn3)CC2)c(C)s1` showed an IC50 of 1160 nM.
`Cc1cc(F)ccc1N(c1nc(-c2cc(Cl)ccc2Cl)cs1)C1CCNC1` (stereo not given) gave an IC50 of 1010 nM.
Molecule `CCCCCN1CCCC1CNS(=O)(=O)c1cccc(C(=O)Nc2cccc(C(F)(F)F)c2)c1` (stereo not given) has an IC50 of 770 nM.
In the case of `CN1C(C)(C)CC(NC(=O)c2ccc(-c3nc4cc(Cl)c(Cl)cc4[nH]3)cc2)CC1(C)C`, the IC50 is reported as 730 nM.
In the case of `CN(Cc1ccccc1)C1CCN(CCc2c[nH]c3ccc(F)cc23)CC1`, the IC50 is reported as 600 nM.
`CC(C)(C)c1ccc(OCC(=O)NC2CCN(c3ccnc4cc(Cl)ccc34)C2)cc1` (stereo not given) gave an IC50 of 130 nM.
Work on `CC(CCCC(=O)Nc1ccc(CC(C)NCCc2cccc(Cl)c2)cc1)NCCc1cccc(Cl)c1` (stereo not given) yielded an IC50 of 620 nM.
In the case of `CN(C)CCCn1cc(C(=O)OC2C[C@H]3CC[C@@H](C2)N3C)c2cc(-c3ccccc3)ccc21` (stereo not given in full), the IC50 is reported as 840 nM.
Molecule `CN1CCCN(c2ccnc3cc4c(cc23)N(C(=O)c2ccc(C(F)(F)F)cc2)CC4)CC1` has an IC50 of 790 nM.
In the case of `COC(=O)c1ccc(OCC(C)NCC(O)c2cccc(C(F)(F)F)c2)cc1` (stereo not given), the IC50 is reported as 840 nM.
For `O=C(O)c1cc(OCC(O)COc2ccc(O)c(C(=O)O)c2)ccc1O`, the IC50 was 230 nM.
With `COc1ccc(NC(=O)c2csc(-c3cc(NC(=O)c4ccnc(N5CCCC5)c4)ccc3C)c2)cc1N1CCN(C)CC1` the IC50 was 660 nM.
`CCc1ccc(C2=Nn3c(nnc3-c3cccs3)SC2)cc1` showed an IC50 of 1290 nM.
For `COc1cccc(-c2cccc(NC(=O)C3CCN(Cc4ccc(O)cc4)CC3)c2)c1`, the IC50 was 1030 nM.
`CNCCNCc1ccc(-c2ccc(-c3nc4c(C)cccc4[nH]3)cc2)cc1` gave an IC50 of 670 nM.
Work on `CCCCCCN1CCC(NCc2ccc(CN(C)C)cc2)CC1` yielded an IC50 of 1270 nM.
`CC[C@H]1CN2CC[C@@H]1C[C@H]2[C@H](O)c1cc(-c2cc(Cl)cc(Cl)c2)nc2ccc(OC)cc12` showed an IC50 of 240 nM.
`OCCN1CCN(Cc2ccc(-c3cccc(-c4nc5ccc(C(F)(F)F)cc5[nH]4)c3)cc2)CC1` was tested, and the IC50 was 640 nM.
Molecule `Cn1nc(-c2ccc(NC(=O)Nc3cc(C(F)(F)F)ccc3F)cc2)c2cnc(NCCCCN3CCCC3)nc21` has an IC50 of 530 nM.
`CC(=O)CC(=O)N1CCN(c2ccccc2)CC1` gave an IC50 of 1060 nM.
`CN(C)c1ccc2nc(N)nc(N)c2c1Cl` showed an IC50 of 470 nM.
`CCN(CC)C(=NC(N)=NCCCCCCN=C(N)N=C(Nc1ccc(Cl)cc1)N(CC)CC)Nc1ccc(Cl)cc1` gave an IC50 of 930 nM.
`O=C(NCCN1CCCC1)c1ccc(-c2ccc(-c3nc4ccccc4[nH]3)s2)cc1` gave an IC50 of 940 nM.
Work on `O=S(=O)(NCCN1CCCC1)c1cccc(-c2cccc(CNCc3ccsc3)c2)c1` yielded an IC50 of 870 nM.
Molecule `CC(C)CNC(=S)N1CCCN(c2nc3ccc(Cl)cc3s2)CC1` has an IC50 of 960 nM.
In the case of `NCCCNc1nc(Nc2ccc(C(F)(F)F)cc2F)c2c(=O)[nH]ccc2n1`, the IC50 is reported as 1050 nM.
In the case of `CC(=O)N[C@H](C(=O)Nc1ccc(-c2ccc(-c3nc4ccc(C(F)(F)F)cc4[nH]3)s2)cc1)C(C)C`, the IC50 is reported as 1030 nM.
`CC(=O)N(Cc1cccc(-c2ccc(CNCCc3ccccc3)cc2)c1)C1CCN(Cc2ccccc2)CC1` showed an IC50 of 690 nM.
With `COc1ccc(CN2CCC2=O)c(OC)c1` the IC50 was 120 nM.
In the case of `OCCCCCCN=Cc1[nH]c(=S)sc1O`, the IC50 is reported as 850 nM.
In the case of `Cc1ccc(Cl)c2sc(N3CCN(C(=O)c4ccc([N+](=O)[O-])o4)CC3)nc12`, the IC50 is reported as 320 nM.
With `CC1CCC(C[C@@H](C(=O)N[C@H](C(=O)Nc2nccs2)[C@@H](C)O)[C@H](CCC(F)(F)F)N(O)C=O)CC1` (stereo not given in full) the IC50 was 540 nM.
For `COc1ccc(NS(=O)(=O)c2ccc(C(=O)Nc3ccc(C(F)(F)F)cc3)cc2)cc1N1CCN(CC2CC2)CC1`, the IC50 was 830 nM.
For `CN(C)Cc1cccc(-c2ccc(NC(=O)c3ccc4c(=O)n(CCN5CCCCC5)cnc4c3)cc2)c1`, the IC50 was 650 nM.
`NC1CCN(CCNCc2cccc(-c3ccc(-c4nc5ccc(F)cc5[nH]4)cc3)c2)C1` (stereo not given) gave an IC50 of 730 nM.
Molecule `CO/C(=C\C=C\c1cc2cc(Cl)c(Cl)cc2[nH]1)C(=O)NCCCNCCN(C)c1ccccc1` has an IC50 of 780 nM.
`COc1ccc(Nc2nccc(N3CCC(NC(=O)Nc4cccc(OC)c4)C3)n2)cc1` (stereo not given) showed an IC50 of 420 nM.
With `CC[C@H]1CN2CC[C@H]1C[C@H]2[C@H](O)c1cc(-c2ccc(F)cc2C)nc2ccc(OC)cc12` the IC50 was 160 nM.
Work on `N#Cc1ccc(-c2ccc(C(=O)NCCCCN3CCC(c4ccc5c(c4OCC(N)=O)CCCC5)CC3)cc2)cc1` yielded an IC50 of 980 nM.
Molecule `CC(C)C[C@H]1c2[nH]c3ccc(Cl)cc3c2CCN1C(=O)CCc1ccccc1` has an IC50 of 880 nM.
Molecule `OCC1CCN(Cc2ccc(-c3ccc(-c4nc5ccc(C(F)(F)F)cc5[nH]4)s3)cc2)CC1` has an IC50 of 480 nM.
For `COc1ccc(CNC2CCN(C)CC2)cc1-c1ccc(S(=O)(=O)NCc2cccnc2)s1`, the IC50 was 840 nM.
Work on `Cc1cccnc1Nc1nc(-c2ccccn2)cs1` yielded an IC50 of 690 nM.
For `CCOc1cc(C2C(C(=O)OC(C)C)=C(C)NC3=C2C(=O)CC(c2ccc(Cl)cc2)C3)ccc1OC(C)=O` (stereo not given), the IC50 was 930 nM.
`Fc1ccc(Nc2ccnc3cc(-c4cccc(CNCCN5CCOCC5)c4)ccc23)c(Cl)c1` gave an IC50 of 140 nM.
`COC(=O)c1cccc(NC(=O)NC2CCN(c3ccnc(NCc4ccc(F)cc4)n3)CC2)c1` showed an IC50 of 810 nM.
In the case of `COc1ccc2c(c1)OC(C)(C)CC2=NOS(=O)(=O)c1ccc(C)cc1`, the IC50 is reported as 210 nM.
`CCC(C)NS(=O)(=O)c1ccc2nc(Nc3ccc(C)c(Cl)c3)n(C(C)C(C)C)c2c1` (stereo not given) gave an IC50 of 380 nM.
Molecule `COc1cccc(-c2cc(C(=O)Nc3ccc4nc(-c5ccccc5)[nH]c4c3)[nH]n2)c1` has an IC50 of 840 nM.
`Cc1ccc(C)c(-n2c(SCC(=O)Nc3ccc(C(N)=O)cc3)nnc2-c2cccc(Cl)c2)c1` was tested, and the IC50 was 840 nM.
Molecule `CCN(CCCN1CCCCC1)c1cc(C)nc(Nc2cc(C)ccc2C)n1` has an IC50 of 660 nM.
With `CCCc1cc(Cc2cnc(N)nc2N)cc2c1OC(C)C2C` (stereo not given) the IC50 was 670 nM.
With `Cc1nc(-c2cccc(Nc3nccc(NCC(O)c4cccc(F)c4)n3)c2)cs1` (stereo not given) the IC50 was 700 nM.
`Cc1[nH]c(C)c(-c2ccc(-c3ccc(OC(F)(F)F)cc3)nc2)c(=O)c1Br` gave an IC50 of 250 nM.
`O=C(Nc1cccc(C(F)(F)F)c1)N1CCOC(CCN2CCC3(CCc4ccccc43)CC2)(c2ccc(Cl)c(Cl)c2)C1` (stereo not given) gave an IC50 of 740 nM.
For `COc1ccc2c(NN=Cc3cccc(F)c3)ccnc2c1`, the IC50 was 210 nM.
In the case of `CCCC(C)NC(=O)[C@H](Cc1ccccc1)NC(=O)c1ccc(O)c(-c2ccc(OC)cc2)c1` (stereo not given in full), the IC50 is reported as 1240 nM.
For `COc1cc2nc(Nc3ccc(Oc4ccccc4)cc3)nc(Nc3ccc(Oc4ccccc4)cc3)c2cc1OC`, the IC50 was 930 nM.
Molecule `COc1ccc2c(NN=Cc3ccccc3[N+](=O)[O-])cc(C)nc2c1` has an IC50 of 720 nM.
Molecule `COc1ccc2nccc(NN=Cc3cccc(F)c3)c2c1` has an IC50 of 750 nM.
`Nc1c2ccccc2nc2cc(C(F)(F)F)ccc12` gave an IC50 of 840 nM.
`Cc1nc2nc(N)nc(N)c2c(C)c1Cc1ccc(C(N)=O)cc1` showed an IC50 of 530 nM.
Molecule `CC(=O)Nc1ccc(C(=O)Nc2cccc(-c3ccc(-c4nc5ccc(F)cc5[nH]4)cc3)c2)cn1` has an IC50 of 170 nM.
In the case of `NC(N)=NCC=C(c1ccccc1)c1ccccc1`, the IC50 is reported as 990 nM.
`CCCC(CNCc1cccc(SC(F)(F)F)c1)CNc1cc(=O)c2ccccc2[nH]1` (stereo not given) showed an IC50 of 710 nM.
For `O=[N+]([O-])c1cccc(S(=O)(=O)N2CCN(CC(O)COc3ccc(-c4ccccc4)cc3)CC2)c1` (stereo not given), the IC50 was 1360 nM.
`COc1ccc2c(NN=Cc3ccccc3)cc(C)nc2c1` was tested, and the IC50 was 850 nM.
Work on `O=C(Nc1ccc(F)cc1)c1cnc(N2CCN(c3ccncc3)CC2)c(Cl)c1` yielded an IC50 of 740 nM.
`CN1CCN(CCCNCc2ccc(Nc3nccc(Nc4ccc(Oc5ccccc5)cc4)n3)cc2)CC1` was tested, and the IC50 was 630 nM.
Molecule `Nc1nc(N)c2c(ccc3nccc32)[nH]1` has an IC50 of 1080 nM.
Molecule `O=[N+]([O-])c1cc(/C=N/Nc2nc3ccccc3[nH]2)ccc1O` has an IC50 of 950 nM.
`CO/C(=C\C=C/c1cc2cc(Cl)c(Cl)cc2[nH]1)C(=O)NC1CC(C)(C)N(C)C(C)(C)C1` was tested, and the IC50 was 830 nM.
In the case of `CCc1c(C)nc(-n2nc(C)cc2NC(=O)CCc2ccccc2)[nH]c1=O`, the IC50 is reported as 750 nM.
Molecule `N#Cc1ccc(N(CC(=O)NCCc2ccc(F)cc2)CC2CC2)c2ccccc12` has an IC50 of 930 nM.
For `COc1cc(Cc2cnc(N)nc2N)cc(OCCCCNS(=O)(=O)C(F)(F)F)c1OC`, the IC50 was 1040 nM.
With `COCCOc1ccc(Nc2nccc(-c3c(-c4cccc(NC(=O)c5c(F)cccc5F)c4)nn4ccccc34)n2)cc1Cl` the IC50 was 360 nM.
`CCN1CCN(c2ccc(Nc3c4ccccc4nc4ccccc34)cc2)CC1` showed an IC50 of 720 nM.
